Measured values from ChEMBL document CHEMBL4330075, “Discovery of Novel Quinoline-Chalcone Derivatives as Potent Antitumor Agents with Microtubule Polymerization Inhibitory Activity” (J Med Chem, 2019).
Converted amounts (≈) assume the structure as drawn.

Columns and labels:
MDA-MB-231 = assay: Antiproliferative activity against human MDA-MB-231 cells after 72 hrs by MTT assay; type: functional, cell-based; settings: MDA-MB-231, 72 h
L02 = assay: Cytotoxicity against human LO2 cells after 72 hrs by MTT assay; type: cell-based; settings: L02, 72 h
[1] = Selectivity index, ratio of IC50 for human LO2 cells to IC50 for human HepG2 cells; type: toxicity; settings: LO2 cells and HepG2 cells, read-out: Ratio IC50
K562 [2] = assay: Cell cycle arrest in human K562 cells assessed as accumulation of cells at S phase at 5 nM after 48 hrs by propidium iodide staining-based flow cytometric analysis (reference value: 36.27%); type: functional
K562 [3] = assay: Induction of apoptosis in human K562 assessed as early apoptotic cells at 5 nM after 48 hrs by Annexin V-APC/propidium iodide staining-based flow cytometric analysis (reference value: 4.44%); type: functional
K562 [4] = assay: Induction of mitochondrial membrane potential disruption in human K562 cells assessed as collapsed mitochondrial membrane potential at 20 nM after 48 hrs by JC-1 staining-based flow cytometric analysis (reference value: 0.63%); type: functional
HUVEC = assay: Antiproliferative activity against human HUVEC cells after 24 hrs by MTT assay; type: cell-based
[5] = Aqueous solubility in pH 7.4 phosphate buffer by HPLC analysis; type: physicochemical
[6] = Toxicity in ICR mouse assessed as mouse survival at 800 mg/kg, iv for 14 days relative to control; type: organism-based; settings: in vivo
[7] = Toxicity in ICR mouse assessed as mouse survival at 1000 mg/kg, iv for 14 days relative to control; type: organism-based; settings: in vivo
[8] = Toxicity in iv dosed ICR mouse assessed as mouse survival for 14 days; type: organism-based; settings: in vivo
[9] = Antitumor activity against […] H22 cells xenografted in ICR mouse assessed as reduction in tumor weight at 20 mg/kg, iv qd for 21 consecutive days and measured every 2 days relative to control; type: functional; design: scale not given: the % may be the effect or the level left
[10] = Cardiotoxicity in ICR mouse xenografted with […] cells at 10 to 20 mg/kg, iv qd for 21 consecutive days by H and E staining-based assay; type: toxicity, organism-based; settings: in vivo
[11] = Hepatotoxicity in ICR mouse xenografted with […] cells at 10 to 20 mg/kg, iv qd for 21 consecutive days by H and E staining-based assay; type: toxicity, organism-based; settings: in vivo

COc1ccc(/C=C(\C)C(=O)c2cc(C)nc3ccccc23)cc1O
IC50 (MDA-MB-231): 0.015 µM
IC50 (L02): 0.987 µM
selectivity ratio [1]: 65.8
Activity (K562 [2]): 31.55%
Activity (K562 [3]): 12.87%
Activity (K562 [4]): 53.39%
IC50 (HUVEC): 0.25 µM
solubility [5]: 0.016 mg/mL (≈ 48 µM)
survival at 336 h [6]: 30%
survival at 336 h [7]: 10%
LD50 at 336 h [8]: 666 mg/kg
Activity [9]: 65.3%
Activity [10]: Non-Toxic
Activity [11]: Non-Toxic
